Assay results taken from patent US7741327B2 (Hoffmann-La Roche Inc., priority 2008, dated 2010).

target: T1, Recombinant human liver GK1 (GST-GK) (Homo sapiens, UniProt P35557); experiment: In vitro glucokinase activity (G6PDH-coupled NADH assay); type: biochemical; conditions: 30° C., 5 mM D-glucose, 10% DMSO
T1 construct: made in house; host or cells: E. coli
T1 sequence (P35557 1-466 isoform P35557-2): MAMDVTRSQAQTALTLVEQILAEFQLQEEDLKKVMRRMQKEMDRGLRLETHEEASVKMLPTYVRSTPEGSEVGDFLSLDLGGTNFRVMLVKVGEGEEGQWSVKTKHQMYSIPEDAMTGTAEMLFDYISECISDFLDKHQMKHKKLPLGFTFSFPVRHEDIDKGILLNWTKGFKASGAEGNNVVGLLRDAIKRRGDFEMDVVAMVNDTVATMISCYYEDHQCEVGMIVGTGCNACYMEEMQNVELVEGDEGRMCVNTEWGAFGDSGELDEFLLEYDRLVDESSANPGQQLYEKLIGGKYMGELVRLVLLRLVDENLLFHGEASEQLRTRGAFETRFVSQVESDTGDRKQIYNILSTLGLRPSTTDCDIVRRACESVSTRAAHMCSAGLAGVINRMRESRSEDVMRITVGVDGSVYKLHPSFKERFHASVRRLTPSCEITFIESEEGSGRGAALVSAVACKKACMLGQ
Outline: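 Activation measured as the rate of OD340 rise from G6PDH-coupled NADH production, relative to 10% DMSO control, reported as SC1.5 (concentration for 50% activity increase). Conditions: 30° C, pH 7.1 Hepes, 5 mM glucose, 1 mM ATP, purified recombinant GST-human GK1, compound preincubated 10 min before enzyme addition.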

SMILES | SC1.5 (concentration of activator that produced a 50% increase in the activity of GK) [µM]
CC(C)C[C@@H](C(=O)Nc1ccn(C[C@@H](O)CO)n1)N1CC(Oc2c(F)ccc(OC(C)C)c2F)=CC1=O [Example 134, (S)-2-[4-(2,6-Difluoro-3-isopropoxy-phenoxy)-2-oxo-2,5-dihydro-pyrrol-1-yl]-4-methyl-pentanoic acid [1-((R)-2,3-dihydroxy-propyl)-1H-pyrazol-3-yl]-amide] | 0.069
CCOc1ccccc1OC1=CC(=O)N([C@@H](CC(C)C)C(=O)Nc2ccn(CC(C)(C)O)n2)C1.Cl [Example 81, (S)-2-[4-(2-ethoxy-phenoxy)-2-oxo-2,5-dihydro-pyrrol-1-yl]-4-methyl pentanoic acid [1-(2-hydroxy-2-methyl-propyl)-1H-pyrazol-3-yl]-amide hydrochloride] | 0.932
CC(C)(O)Cn1ccc(NC(=O)[C@H](CC2CCCCC2)N2CC(Oc3cccc4c3OCCO4)=CC2=O)n1 [Example 33, (S)-3-Cyclohexyl-2-[4-(2,3-dihydro-benzo[1,4]dioxin-5-yloxy)-2-oxo-2,5-dihydro-pyrrol-1-yl]-N-[1-(2-hydroxy-2-methyl-propyl)-1H-pyrazol-3-yl]-propionamide] | 0.035
CC(C)C[C@@H](C(=O)Nc1nc(CCC(F)(F)F)ns1)N1CC(Oc2ccccc2Cl)=CC1=O [Example 106, (S)-2-[4-(2-Chloro-phenoxy)-2-oxo-2,5-dihydro-pyrrol-1-yl]-4-methyl-pentanoic acid [3-(3,3,3-trifluoro-propyl)-[1,2,4]thiadiazol-5-yl]-amide] | ~30
CC(C)(O)Cn1ccc(NC(=O)C(Cc2c(F)cccc2F)N2CC(Oc3c(F)cccc3F)=CC2=O)n1 (centres unmarked) [Example 59, 2-[4-(2,6-Difluoro-phenoxy)-2-oxo-2,5-dihydro-pyrrol-1-yl]-3-(2,6-difluoro-phenyl)-N-[1-(2-hydroxy-2-methyl-propyl)-1-H-pyrazol-3-yl]-propionamide] | 1.082
CC(=O)Cc1nsc(NC(=O)[C@H](CC(C)C)N2CC(Oc3ccccc3Cl)=CC2=O)n1 [Example 113, (S)-2-[4-(2-Chloro-phenoxy)-2-oxo-2,5-dihydro-pyrrol-1-yl]-4-methyl-pentanoic acid [3-(2-oxo-propyl)-[1,2,4]thiadiazol-5-yl]-amide] | 1.737
CCOc1ccc(F)c(OC2=CC(=O)N([C@@H](CC(C)C)C(=O)Nc3cnc([C@H]4COC(C)(C)O4)cn3)C2)c1F [Example 152, (S)-2-[4-(3-Ethoxy-2,6-difluoro-phenoxy)-2-oxo-2,5-dihydro-pyrrol-1-yl]-4-methyl-pentanoic acid [5-((S)-2,2-dimethyl-[1,3]dioxolan-4-yl)-pyrazin-2-yl]-amide] | 0.566
CC(C)OC1=CC(=O)N([C@@H](CC2CCCC2)C(=O)Nc2ccn(CC(C)(C)O)n2)C1 [Example 15, (S)-3-Cyclopentyl-N-[1-(2-hydroxy-2-methyl-propyl)-1H-pyrazol-3-yl]-2-(4-isopropoxy-2-oxo-2,5-dihydro-pyrrol-1-yl)-propionamide] | 1.832
CCOC(=O)Cn1ccc(NC(=O)[C@H](CC(C)C)N2CC(Oc3cccc(C4CC4)c3F)=CC2=O)n1 [Example 148, (3-{(S)-2-[4-(3-Cyclopropyl-2-fluoro-phenoxy)-2-oxo-2,5-dihydro-pyrrol-1-yl]-4-methyl-pentanoylamino}-pyrazol-1-yl)-acetic acid ethyl ester] | 0.21
CC(C)OC1=CC(=O)N([C@@H](CC2CCCCC2)C(=O)Nc2ccn(CC(C)(C)O)n2)C1 [Example 25, (S)-3-Cyclohexyl-N-[1-(2-hydroxy-2-methyl-propyl)-1H-pyrazol-3-yl]-2-(4-isopropoxy-2-oxo-2,5-dihydro-pyrrol-1-yl)-propionamide] | 1.872

Second part, the compound after the results:

SC1.5 (concentration of activator that produced a 50% increase in the activity of GK) [µM] | SMILES
0.33 | CC(C)(O)Cn1ccc(NC(=O)[C@H](C[C@@H]2CCCCO2)N2CC(Oc3c(F)cccc3F)=CC2=O)n1 [Example 262, (S)-2-[4-(2,6-Difluoro-phenoxy)-2-oxo-2,5-dihydro-pyrrol-1-yl]-N-[1-(2-hydroxy-2-methyl-propyl)-1H-pyrazol-3-yl]-3-tetrahydro-pyran-2-yl-propionamide]
4.287 | O=C(Nc1ccn(C[C@@H](O)CO)n1)C(CC(C(F)(F)F)C(F)(F)F)N1CC(Oc2ccccc2Cl)=CC1=O (stereo partly drawn) [Example 219, 2-[4-(2-Chloro-phenoxy)-2-oxo-2,5-dihydro-pyrrol-1-yl]-5,5,5-trifluoro-4-trifluoromethyl-pentanoic acid [1-((R)-2,3-dihydroxy-propyl)-1H-pyrazol-3-yl]-amide]
2.061 | CC(C)C[C@@H](C(=O)Nc1ccn(C)n1)N1CC(Oc2cccc(CC(C)(C)O)c2)=CC1=O [Example 235, (S)-2-{4-[3-(2-Hydroxy-2-methyl-propyl)-phenoxy]-2-oxo-2,5-dihydro-pyrrol-1-yl}-4-methyl-pentanoic acid (1-methyl-1H-pyrazol-3-yl)-amide]
0.137 | CC(C)(O)Cn1ccc(NC(=O)C(C[C@H]2C[C@@H](C)C2)N2CC(Oc3ccccc3Cl)=CC2=O)n1 (stereo partly drawn) [Example 217, 2-[4-(2-Chloro-phenoxy)-2-oxo-2,5-dihydro-pyrrol-1-yl]-N-[1-(2-hydroxy-2-methyl-propyl)-1H-pyrazol-3-yl]-3-(cis-3-methyl-cyclobutyl)-propionamide]
0.055 | CC(C)(O)Cn1ccc(NC(=O)[C@H](CC2CCCCC2)N2CC(Oc3cccc(OC(F)(F)F)c3)=CC2=O)n1 [Example 211, (S)-3-cyclohexyl-N-[1-(2-hydroxy-2-methyl-propyl)-1H-pyrazol-3-yl]-2-[2-oxo-4-(3-trifluoromethoxy-phenoxy)-2,5-dihydro-pyrrol-1-yl]-propionamide]
0.892 | CC(C)(O)Cn1ccc(NC(=O)[C@H](CC2CCCCC2)N2CC(Oc3ccccc3C(C)(C)C)=CC2=O)n1 [Example 197, (S)-2-[4-(2-t-butyl-phenoxy)-2-oxo-2,5-dihydro-pyrrol-1-yl]-3-cyclohexyl-N-[1-(2-hydroxy-2-methyl-propyl)-1H-pyrazol-3-yl]-propionamide]
> 30 | O=C(Nc1ccn(C[C@@H](O)CO)n1)C(CC(F)(F)F)N1CC(Oc2ccccc2Cl)=CC1=O (stereo partly drawn) [Example 224, 2-[4-(2-Chloro-phenoxy)-2-oxo-2,5-dihydro-pyrrol-1-yl]-N-[1-((R)-2,3-dihydroxy-propyl)-1H-pyrazol-3-yl]-4,4,4-trifluoro-butyramide]
0.012 | Cc1cccc(OC2=CC(=O)N([C@@H](CC3CCCCC3)C(=O)Nc3ccn(CC(C)(C)O)n3)C2)c1C [Example 204, (S)-3-cyclohexyl-2-[4-(2,3-dimethyl-phenoxy)-2-oxo-2,5-dihydro-pyrrol-1-yl]-N-[1-(2-hydroxy-2-methyl-propyl)-1H-pyrazol-3-yl]-propionamide]

same assay, conditions: at 30 μM test compound

SMILES | fold act. @ 30 μM [fold]
CC(C)C[C@@H](C(=O)Nc1nc(CCC(F)(F)F)ns1)N1CC(Oc2ccccc2Cl)=CC1=O [Example 106, (S)-2-[4-(2-Chloro-phenoxy)-2-oxo-2,5-dihydro-pyrrol-1-yl]-4-methyl-pentanoic acid [3-(3,3,3-trifluoro-propyl)-[1,2,4]thiadiazol-5-yl]-amide] | 1.5
O=C(Nc1ccn(C[C@@H](O)CO)n1)C(CC(F)(F)F)N1CC(Oc2ccccc2Cl)=CC1=O (stereo partly drawn) [Example 224, 2-[4-(2-Chloro-phenoxy)-2-oxo-2,5-dihydro-pyrrol-1-yl]-N-[1-((R)-2,3-dihydroxy-propyl)-1H-pyrazol-3-yl]-4,4,4-trifluoro-butyramide] | 1.4
